Measurements reported in patent US11160808B2, “Compounds that enhance Atoh1 expression” (Massachusetts Eye & Ear Infirmary, priority 2008, dated 2021).

Columns and labels:
[1] = LD50 (median lethal dose) determination; type: cell-based
Text: IC50 is a measure of the effectiveness of a compound in inhibiting biological or biochemical function. LD50 is the amount of a compound required to kill half the members of a tested population.

[2] = tested on: Math1 enhancer and minimal promoter Luciferase reporter in HEK cells; test: Math1 Luciferase reporter assay in HEK cells; type: cell-based, human; settings: Homo sapiens, HEK293; for IC50: read-out: IC50; for maximal fold induction: read-out: Maximum (Fold DMSO)
Text: A human embryonic kidney (HEK) cell line stably expressing a Luciferase gene controlled by an Math1 enhancer and minimal promoter was used in a high-throughput screen (HTS) of 144,000 small molecules to identify compounds that increase Math1 expression (i.e., transcription and/or translation). Such compounds can be used to increase the conversion of stem cells, progenitor cells, and support cells to or towards a hair cell. Screens to identify such compounds are described by Li et al., (U.S. Publication No. 2005/0287127) and Li et al., (U.S. application Ser. No. 11/953,797).
HEK cells stably expressing the Math1 Luciferase reporter were plated onto 384 well plates and cultured overnight in medium containing 10% fetal calf serum (FCS). Activation of the Math1 enhancer was measured by the increase in luminescence on a plate reader following addition of a luciferase detection agent. The assay was optimized for cell number, time of incubation, volume of medium, cell lysis reagent and luciferase reagent. Luminescence levels were compared in cells with the Math1-luciferase construct with and without retinoic acid (1 μM), and/or a luciferase construct with and without the Math1 enhancer and minimal promoter region.
To improve assay sensitivity, and reduce the coefficient of variation (CV), a more sensitive luciferase reagent (BriteLite luciferase reporter assay reagent, Perkin Elmer) was used, and Triton-X-100 was added to the lysis reagent to ensure complete lysis of the cells. Following these changes a CV of 4.2% was recorded. These conditions were used for all high-throughput screens. The luminescence threshold for a compound to be positive was defined as a 2-fold increase above the control (e.g., cells exposed to DMSO).
Cells were seeded on 384 well plates and allowed to attach overnight at 37° C. with 5% CO2 in the absence of growth factors. Math1 activation was measured by the increase in luminescence on a plate reader following addition of a luciferase detection reagent. Luminescence was assessed at 24, 48, and 72 hours. These conditions were used to screen 144,000 compounds contained in the small molecule libraries at Harvard University's Laboratory for Drug Discovery in Neurodegeneration (LDDN).
HTS were performed using HEK-Math1 cells seeded in 384 well plates. One compound was added per well using pin transfer. The final concentration of each compound was […]. Cell were incubated in the presence of a compound for 48 hours at 37° C. with 5% CO2. Cell lysates then were collected and bioluminescence determined. Luminescence values were compared normalized against DMSO.
About 20000 compounds were screened per week in 50 plates of 384 well with the aid of robotic systems (Beckman Biomek FX). Compounds were screened at an average final concentration of 0.7 μM (in 0.04% DMSO) with each plate containing 16 wells of 1 μM retinoic acid, as a positive control, and 16 wells of 0.04% DMSO, as a vehicle control. Percent activation of luminescence in the test compounds was determined for cells treated with the compounds against cells treated with DMSO.
Ten compounds, randomly selected from the group of 110 compounds identified in Example 2, were further evaluated, as follows. HEK cells were plated on 96 well plates at a density of 100000 cells per well. One day after plating, 0.1, 1, and 5 μM of each positive compound was added per well in a 10% fetal bovine serum (FBS) DMEM solution. Cells were then lysed 48 hours after addition of the compound and Math1 expression was analyzed using a luciferase reporter assay, as described above, and real-time PCR.
The half maximal inhibitory concentration (IC50) and median lethal dose or Lethal Dose, 50% (LD50) were determined for each of the compounds identified in Example 2 using standard laboratory techniques. IC50 is a measure of the effectiveness of a compound in inhibiting biological or biochemical function. LD50 is the amount of a compound required to kill half the members of a tested population.

SMILES | LD50 [1] | IC50 [2] | maximal fold induction [2]
O=C(c1ccc(-c2ccc(Br)cc2)o1)N1CCOCC1 [CP-0061777, (5-(4-bromophenyl)furan-2-yl)(morpholino)methanone] | >10 µM | > 10000 nM | 2.1
Cc1ccccc1-c1nnc(-c2ccccc2)o1 [CP-0062030, 2-phenyl-5-o-tolyl-1,3,4-oxadiazole] | >10 µM | 2000 nM | 1.6
COc1ccc(OCC(=O)Nc2nccs2)cc1 [CP-0063182, 2-(4-methoxyphenoxy)-N-(thiazol-2-yl)acetamide] | >10 µM | 200 nM | 1.7
CCc1c(C)[nH]c2cc(-c3ccc(Cl)cc3)nn2c1=O [CP-0063375, 2-(4-chlorophenyl)-6-ethyl-5-methylpyrazolo[1,5-a]pyrimidin-7(4H)-one] | >10 µM | 2200 nM | 1.9
O=c1ccc2ccc(OCc3ccc(F)cc3)cc2o1 [CP-0063508, 7-(4-fluorobenzyloxy)-2H-chromen-2-one] | >10 µM | > 10000 nM | 1.7
COc1ccc(-c2cc(-c3ccccc3)[nH]n2)c(O)c1 [CP-0064231, 5-methoxy-2-(5-phenyl-1H-pyrazol-3-yl)phenol] | >10 µM | 1000 nM | 1.5
O=C(Nc1ccc(Cl)cn1)c1sc2ccccc2c1Cl [CP-0064314, 3-chloro-N-(5-chloropyridin-2-yl)benzo[b]thiophene-2-carboxamide] | >10 µM | > 10000 nM | 1.7
O=C(Nc1nc2ccc(Br)cc2s1)c1cccs1 [CP-0064917, N-(6-bromobenzo[d]thiazol-2-yl)thiophene-2-carboxamide] | >10 µM | > 10000 nM | 2
Cc1cc(NC(=O)c2ccc3c(c2)OCO3)no1 [CP-0065665, N-(5-methylisoxazol-3-yl)benzo[d][1,3]dioxole-5-carboxamide] | >10 µM | 800 nM | 1.7
NC(=O)c1sc2nc3c(cc2c1N)CCCCC3 [CP-0066751, 3-amino-6,7,8,9-tetrahydro-5H-cyclohepta[e]thieno[2,3-b]pyridine-2-carboxamide] | >10 µM | 1000 nM | 1.9
Cn1c(CCc2ccc(N)cc2)nc2ccccc21 [CP-0066829, 4-(2-(1-methyl-1H-benzo[d]imidazol-2-yl)ethyl)aniline] | >10 µM | 1000 nM | 1.8
Cc1cc(Cl)ccc1OCc1nc(-c2ccncc2)no1 [CP-0067108, 5-((4-chloro-2-methylphenoxy)methyl)-3-(pyridin-4-yl)-1,2,4-oxadiazole] | >10 µM | 3000 nM | 1.8
Cn1nccc1C(=O)Nc1nc2ccccc2s1 [CP-0067233, N-(benzo[d]thiazol-2-yl)-1-methyl-1H-pyrazole-5-carboxamide] | >10 µM | 2000 nM | 1.8
COc1ccccc1-c1nc(-c2ccc(C)cc2)no1 [CP-0067246, 5-(2-methoxyphenyl)-3-p-tolyl-1,2,4-oxadiazole] | >10 µM | 1800 nM | 1.5
c1ccc(OCc2nc(-c3ccccn3)no2)cc1 [CP-0068395, 5-(phenoxymethyl)-3-(pyridin-2-yl)-1,2,4-oxadiazole] | >10 µM | 3000 nM | 1.6
O=C(NCC1CCCO1)c1sc2ccccc2c1Cl (stereo not drawn) [CP-0068577, 3-chloro-N-((tetrahydrofuran-2-yl)methyl)benzo[b]thio-phene-2-carboxamide] | >10 µM | 1000 nM | 1.6
Cc1ccc(-c2nc(-c3cccnc3)no2)c(Cl)c1 [CP-0068929, 5-(2-chloro-4-methylphenyl)-3-(pyridin-3-yl)-1,2,4-oxadiazole] | >10 µM | 400 nM | 2

SMILES | LD50 [1] | IC50 [2] | maximal fold induction [2]
Cc1cccc(/C(N)=N/OC(=O)c2cccnc2)c1 [CP-0069934, (Z)-3-methyl-N′-(nicotinoyloxy) benzimidamide] | >10 µM | 2000 nM | 1.7
COc1ccccc1OCc1nc2ccccc2[nH]1 [CP-0069961, 2-((2-methoxyphenoxy)methyl)-1H-benzo[d]imidazole] | >10 µM | 2000 nM | 1.7
Cc1ccc(-c2noc(CN3CCCCC3)n2)cc1 [CP-0070164, 5-(piperidin-1-ylmethyl)-3-p-tolyl-1,2,4-oxadiazole] | >10 µM | 1600 nM | 1.7
Brc1ccc(-c2nc(-c3cccnc3)no2)cc1 [CP-0070367, 5-(4-bromophenyl)-3-(pyridin-3-yl)-1,2,4-oxadiazole] | >10 µM | 2000 nM | 1.7
CCn1ccc(C(=O)Nc2cc(Cl)ccc2Cl)n1 [CP-0070844, N-(2,5-dichlorophenyl)-1-ethyl-1H-pyrazole-3-carboxamide] | >10 µM | 2000 nM | 1.7
c1ccc(CCn2nnc3ccccc32)cc1 [CP-0070871, 1-phenethyl-1H-benzo[d][1,2,3]triazole] | >10 µM | 3000 nM | 2
Cn1cc(Cl)c(C(=O)NCC(=O)c2ccccc2)n1 [CP-0070886, 4-chloro-1-methyl-N-(2-oxo-2-phenylethyl)-1H-pyrazole-3-carboxamide] | >10 µM | 1000 nM | 2.1
COc1ccc(-c2csc(Nc3ncccc3C)n2)cc1 [CP-0071862, 4-(4-methoxyphenyl)-N-(3-methylpyridin-2-yl)thiazol-2-amine] | >10 µM | 700 nM | 1.8
Nc1nc(-c2ccc(-c3ccccc3)cc2)cs1 [CP-0072036, 4-(biphenyl-4-yl) thiazol-2-amine] | >10 µM | 1500 nM | 1.7
Cc1cccc(-c2ccc3ccccc3n2)c1 [CP-0072092, 2-m-tolylquinoline] | >10 µM | 1000 nM | 1.7
c1ccc(-c2cc3ccccc3[nH]2)nc1 [CP-0072096, 2-(pyridin-2-yl)-1H-indole] | >10 µM | 6000 nM | 2.2
O=C(Nc1ccc(Cl)cn1)c1cccs1 [CP-0072156, N-(5-chloropyridin-2-yl)thiophene-2-carboxamide] | >10 µM | 2000 nM | 2
O=C(Nc1ccc(I)cc1)c1ccco1 [CP-0072253, N-(4-iodophenyl)furan-2-carboxamide] | >10 µM | 1300 nM | 2
O=C(NCCOc1ccc(F)cc1)c1cccs1 [CP-0072271, N-(2-(4-fluorophenoxy)ethyl)thio-phene-2-carboxamide] | >10 µM | 1000 nM | 2.2
COc1cccc(Nc2ncnc3[nH]cnc23)c1 [CP-0072720, N-(3-methoxyphenyl)-9H-purin-6-amine] | >10 µM | 3000 nM | 1.8
Cn1c(COc2ccc(F)cc2)nc2ccccc21 [CP-0074806, 2-((4-fluorophenoxy)methyl)-1-methyl-1H-benzo[d]imidazole] | >10 µM | 700 nM | 1.8
